What was measured:
[1] = molecular target: human norepinephrine transporter (NET) (Homo sapiens (Human), UniProt P23975); assay: Scintillation Proximity Assay (SPA) for human NET binding ([3H]nisoxetine); details: recombinant human NET, CHO membranes
Text: (§1) Affinity is expressed in terms of inhibition constant (Ki) of the compounds of the invention for DAT, NET and SERT, and it is typically calculated from the IC50 values obtained in competition experiments using Cheng and Prusoff equation (Cheng and Prusoff, Biochem. Pharmacol. 22:3099, 1973). In the context of the present invention pKi values (corresponding to the antilogarithm of Ki) are used instead of Ki; pKi are only estimated to be accurate to about 0.3 log unit.
(§2) Chinese Hamster Ovary (CHO) cells stably expressing either human DAT (hDAT-CHO) or human NET (hNET-CHO) or human SERT (hSERT-CHO) are used for the membrane preparations for radioligand binding assays using Scintillation proximity Assay (SPA) technique. Each cell line is cultured independently in F-12K Nutrient Mixture containing 10% of Fetal Bovine Serum (FBS) supplemented with 450 μg/ml G-418. When cells are at 70-80% of confluence 3 mM Na Butyrate was added to the cell culture medium. After 24 h of incubation, the culture medium was removed and the cells detached with Versene (DAT) or by scraping (NET and SERT). Cell suspension is centrifuged at 41,000 g for 10 minutes at 4° C. The resultant pellets are re-suspended in 15 volumes of Ice-cold buffer (20 mM HEPES, 145 mM NaCl, 5 mM KCl, pH7.3), homogenized using an Ultra Turrax homogeniser and centrifuged as before. The resultant membrane pellets are re-suspended in up to 15 volume of ice-cold buffer, incubated for 20 minutes at 37° C and centrifuged as before at 41,000 g. The final membrane pellets are re-suspended into 5-10 volumes of ice-cold buffer, dispensed into 0.5 ml aliquots and stored at −80° C. until use. Protein concentration for each preparation is determined using Bio-Rad Protein Assay Kit.
(§3) The affinity of the compounds of the invention to the human DAT or NET or SERT transporters is assessed by using the [^3H]WIN-35,428 or [^3H]nisoxetine or [^3H]citalopram binding assays in recombinant human DAT, NET and SERT membranes with the SPA technology. The final assay volume is 50 μL in 384 well plates.
(§4) Briefly, 0.5 μL of test compound in neat DMSO or 0.5 μL of DMSO for total binding (TB) or 0.5 μL of indatraline 1 mM (10 μM final concentration) for non specific binding (NSB) are added to the assay plate. 50 μL of the SPA mixture is added to each well, containing: 30 μg/mL or 10 μg/mL or 25 μg/mL DAT, NET, SERT membranes, respectively; 5 nM [^3H]WIN-35,428 or 5 nM [^3H]nisoxetine or 1 nM [^3H]citalopram, for DAT, NET, SERT assay, respectively; 2.5 mg/mL or 1 mg/mL or 4 mg/mL WGA-PVT SPA beads (PerkinElmer RPNQ0001, for DAT, NET, SERT assay, respectively. All components are added to Assay Buffer (20 mM HEPES pH 7.4, 145 mM NaCl, 5 mM KCl, 0.01% Pluronic F-127). 0.02% BSA was used for DAT binding only. Plates are sealed with Topseal A and centrifuged 1 min, 800 rpm. Plates are loaded into a 1450 Microbeta TriLux (Perkin-Elmer) plate reader and the radioactivity counted after at least 4 hrs or overnight incubation at room temperature. Curve fitting and IC50 estimations are performed using a four parameter model in XLfit (IDBS, Guilford, UK) for Microdoft Excel (Microsoft, Redmond, Wash.).

[2] = molecular target: human dopamine transporter (DAT) (Homo sapiens (Human), UniProt Q01959); assay: Scintillation Proximity Assay (SPA) for human DAT binding ([3H]WIN-35,428); details: recombinant human DAT, CHO
Chain of human dopamine transporter (DAT) (Q01959 whole entry): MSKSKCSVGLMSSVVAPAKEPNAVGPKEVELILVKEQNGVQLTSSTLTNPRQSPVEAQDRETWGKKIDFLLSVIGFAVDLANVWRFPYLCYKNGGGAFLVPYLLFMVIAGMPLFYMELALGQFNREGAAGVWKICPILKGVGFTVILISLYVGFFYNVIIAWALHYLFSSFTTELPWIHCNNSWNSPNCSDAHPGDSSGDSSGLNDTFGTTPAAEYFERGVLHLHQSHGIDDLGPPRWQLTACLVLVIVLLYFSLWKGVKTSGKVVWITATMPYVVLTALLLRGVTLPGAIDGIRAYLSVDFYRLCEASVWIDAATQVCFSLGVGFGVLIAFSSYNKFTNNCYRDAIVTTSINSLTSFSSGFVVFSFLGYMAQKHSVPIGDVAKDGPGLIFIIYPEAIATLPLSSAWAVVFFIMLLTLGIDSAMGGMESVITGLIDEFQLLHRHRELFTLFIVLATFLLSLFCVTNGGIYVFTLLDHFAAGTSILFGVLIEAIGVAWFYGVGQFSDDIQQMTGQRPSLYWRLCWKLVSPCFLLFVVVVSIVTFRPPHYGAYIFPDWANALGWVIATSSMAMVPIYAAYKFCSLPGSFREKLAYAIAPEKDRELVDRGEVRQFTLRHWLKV
Text: as §1, §2, §3, §4
The potency of the compounds of the invention in blocking the DAT function is measured using an uptake assay in a recombinant CHO cell line expressing human DAT (hDAT-CHO). Potency is measured in terms of pIC50 by testing the compounds of invention for the inhibition of [^3H]-dopamine uptake in DAT-CHO cells using a SPA technology in 384 well format.
Briefly, on the days of the experiment hDAT-CHO cells are detached using Versene and added (75,000 cells/mL) to the SPA Mixture, which contains the following components in Assay Buffer (20 mM HEPES, 145 mM NaCl, 5 mM KCl, 2 mM CaCl2, 1 mM MgCl2 and 1 g/L glucose, pH 7.3): 0.02% w/v of Pluronic F127, 2 mg/mL SPA Imaging beads (RPNQ0260, PerkinElmer), 10 μM pargyline and 80 nM of [^3H]-dopamine. […]

[3] = molecular target: human serotonin transporter (SERT) (Homo sapiens (Human), UniProt P31645); assay: Scintillation Proximity Assay (SPA) for human SERT binding ([3H]citalopram); details: recombinant human SERT, CHO membranes
Chain of human serotonin transporter (SERT) (P31645 whole entry): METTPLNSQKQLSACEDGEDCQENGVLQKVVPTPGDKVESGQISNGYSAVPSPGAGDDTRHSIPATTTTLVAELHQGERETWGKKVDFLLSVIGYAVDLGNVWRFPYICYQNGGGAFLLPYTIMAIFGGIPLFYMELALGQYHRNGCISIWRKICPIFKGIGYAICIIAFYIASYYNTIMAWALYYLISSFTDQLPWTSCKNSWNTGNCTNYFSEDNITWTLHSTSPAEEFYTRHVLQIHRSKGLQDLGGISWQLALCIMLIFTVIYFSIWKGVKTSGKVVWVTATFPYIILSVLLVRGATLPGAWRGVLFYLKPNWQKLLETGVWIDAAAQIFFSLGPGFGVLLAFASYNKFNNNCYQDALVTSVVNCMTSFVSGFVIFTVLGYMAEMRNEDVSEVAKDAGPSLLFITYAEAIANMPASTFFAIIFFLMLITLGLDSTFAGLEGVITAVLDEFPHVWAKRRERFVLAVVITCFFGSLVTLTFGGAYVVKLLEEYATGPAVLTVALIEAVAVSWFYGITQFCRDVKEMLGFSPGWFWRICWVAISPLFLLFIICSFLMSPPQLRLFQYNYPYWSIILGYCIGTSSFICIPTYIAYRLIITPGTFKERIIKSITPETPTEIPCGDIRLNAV
Text: as §1, §2, §3, §4

[4] = molecular target: human ERG potassium channel (hERG) (Homo sapiens (Human), UniProt Q12809); assay: hERG channel tail current recording using Rapid ICE automated patch-clamp; format: cell-based; details: HEK293 cells stably transfected with hERG
Chain of human ERG potassium channel (hERG) (Q12809 whole entry): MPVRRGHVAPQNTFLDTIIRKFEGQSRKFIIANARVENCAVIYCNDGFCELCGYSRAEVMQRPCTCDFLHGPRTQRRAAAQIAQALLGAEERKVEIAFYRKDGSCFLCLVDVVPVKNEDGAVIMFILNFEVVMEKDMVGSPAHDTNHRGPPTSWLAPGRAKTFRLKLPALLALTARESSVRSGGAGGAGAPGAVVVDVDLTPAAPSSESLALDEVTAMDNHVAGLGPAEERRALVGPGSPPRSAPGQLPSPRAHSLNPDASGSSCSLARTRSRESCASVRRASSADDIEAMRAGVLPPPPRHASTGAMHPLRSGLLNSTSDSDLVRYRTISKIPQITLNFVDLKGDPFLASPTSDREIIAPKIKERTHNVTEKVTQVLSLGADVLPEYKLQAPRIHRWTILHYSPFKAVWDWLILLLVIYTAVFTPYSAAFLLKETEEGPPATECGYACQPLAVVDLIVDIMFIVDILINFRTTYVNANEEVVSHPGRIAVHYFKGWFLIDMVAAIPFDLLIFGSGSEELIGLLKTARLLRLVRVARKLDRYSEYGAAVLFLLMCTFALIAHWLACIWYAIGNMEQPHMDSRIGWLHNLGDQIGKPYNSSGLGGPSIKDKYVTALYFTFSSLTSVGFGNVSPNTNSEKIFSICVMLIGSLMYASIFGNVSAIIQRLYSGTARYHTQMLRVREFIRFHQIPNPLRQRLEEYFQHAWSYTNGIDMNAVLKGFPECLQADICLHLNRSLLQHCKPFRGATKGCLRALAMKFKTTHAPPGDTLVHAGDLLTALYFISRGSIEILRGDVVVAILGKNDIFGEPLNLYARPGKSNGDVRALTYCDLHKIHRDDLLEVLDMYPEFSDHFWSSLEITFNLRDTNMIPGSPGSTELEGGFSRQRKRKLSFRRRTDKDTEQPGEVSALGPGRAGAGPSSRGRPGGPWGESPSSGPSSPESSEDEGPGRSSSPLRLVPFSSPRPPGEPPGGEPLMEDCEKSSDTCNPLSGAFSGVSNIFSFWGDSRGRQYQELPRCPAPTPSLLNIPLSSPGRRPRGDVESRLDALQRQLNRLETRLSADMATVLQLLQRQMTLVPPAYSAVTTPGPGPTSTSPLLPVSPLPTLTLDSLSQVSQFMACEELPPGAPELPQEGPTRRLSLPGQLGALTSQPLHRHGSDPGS
Procedure: The potency of the compounds of the invention in inhibiting human ERG potassium channel (hERG) tail current is assessed in a recombinant HEK293 cell line stably transfected with hERG cDNA using Rapid ICE™ (Rapid Ion Channel Electrophysiology) assay. Rapid ICE™ is an automated patch-clamp assay utilizing the PatchXpress 7000A system (Molecular Devices Corporation) or the QPatch HTX system (Sophion Bioscience A/S).
Briefly cells are cultivated for 24 to 72 hours before recordings in minimum essential medium supplemented with 10% FBS, 1% non-essential amino acids, 1% sodium pyruvate, 2 mM L-glutamine. The day of the experiment cells are detached with TrypLE and prepared to be loaded on the instrument. For PatchXpress cells are finally resuspended in 150 μl of Extracellular Buffer whereas for QPatch cells are resuspended in 7 ml Serum-Free Media containing 25 mM Hepes and Soybean trypsin inhibitor and immediately placed in the cell storage tank of the machine. The composition of the Extracellular Buffer is (mM): NaCl 137; KCl 4; CaCl2 1.8; MgCl2 1.0; D-glucose 10; N 2 hydroxyethylpiperazine-N′-2-ethanesulfonic acid (HEPES) 10; pH 7.4 with 1 M NaOH. The composition of the pipette solution is (mM): KCl 130; MgCl2 1.0; Ethylene glycol-bis(β-aminoethyl ether)-N,N,N′,N′-tetraacetic acid (EGTA) 5; MgATP 5; HEPES 10; pH 7.2 with 1 M KOH. The voltage protocol includes the following steps: step from −80 mV to −50 mV for 200 ms, +20 mV for 4.8 s, step to −50 mV for 5 s then step to the holding potential of −80 mV. Compounds of the invention are dissolved in DMSO and diluted in Extracellular Buffer to achieve final test concentrations (0.1, 1 and 10 μM) in 0.1% DMSO. The voltage protocol is run and recorded continuously during the experiment. The vehicle, corresponding to 0.1% DMSO in Extracellular Buffer, is then applied for 3 min followed by the test substance in triplicate. The standard combined exposure time is 5 min. The average of tail current amplitude values recorded from 4 sequential voltage pulses is used to calculate for each cell the effect of the test substance by calculating the residual current (% control) compared with vehicle pre-treatment. Data are reported as % inhibition for each concentration tested and IC50 values are estimated using DataXpress or QPatch software. At least two cells are tested, more if results diverge.

Chain of human norepinephrine transporter (NET) (P23975 whole entry): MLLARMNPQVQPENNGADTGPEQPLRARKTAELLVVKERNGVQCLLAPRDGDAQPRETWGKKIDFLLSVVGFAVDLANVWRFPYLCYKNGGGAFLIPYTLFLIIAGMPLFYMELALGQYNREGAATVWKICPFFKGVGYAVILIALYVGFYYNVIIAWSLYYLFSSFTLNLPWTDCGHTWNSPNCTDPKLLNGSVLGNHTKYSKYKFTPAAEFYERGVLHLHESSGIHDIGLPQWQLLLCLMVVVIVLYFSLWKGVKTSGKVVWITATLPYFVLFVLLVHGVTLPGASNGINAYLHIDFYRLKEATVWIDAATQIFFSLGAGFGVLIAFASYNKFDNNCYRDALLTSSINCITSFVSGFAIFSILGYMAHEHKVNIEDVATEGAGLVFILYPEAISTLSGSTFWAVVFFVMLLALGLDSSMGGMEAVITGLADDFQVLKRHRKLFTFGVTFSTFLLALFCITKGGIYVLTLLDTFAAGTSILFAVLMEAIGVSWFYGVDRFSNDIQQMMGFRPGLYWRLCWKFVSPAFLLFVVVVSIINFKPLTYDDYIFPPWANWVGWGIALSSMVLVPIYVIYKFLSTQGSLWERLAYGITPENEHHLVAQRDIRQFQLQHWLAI

| Structure (SMILES) | pIC50 NET [1] | pIC50 DAT [2] | IC50 [3] | pIC50 hERG [4] | IC50 [4] |
| --- | --- | --- | --- | --- | --- |
| CN(C)CC1(O)CCN(c2nc(Oc3cccc(F)c3)cc(C(F)(F)F)n2)CC1 [Example 1, 4-[(dimethylamino)methyl]-1-[4-(3-fluorophenoxy)-6(trifluoromethyl)pyrimidin-2-yl]piperidin-4-ol] | 7.00 | 8.46 | 13.5 µM | 6.6 | – |
| OC1(CN2CCCC2)CCN(c2nc(Oc3cccc(F)c3)cc(C(F)(F)F)n2)CC1 [Example 2, 1-[4-(3-fluorophenoxy)-6-(trifluoromethyl)pyrimidin-2-yl]-4-(pyrrolidin-1-ylmethyl)piperidin-4-ol] | 7.57 | 8.80 | 17 µM | 6.7 | – |
| OC1(CNC2CC2)CCN(c2nc(Oc3cccc(F)c3)cc(C(F)(F)F)n2)CC1 [Example 3, 4-[(cyclopropylamino)methyl]-1-[4-(3-fluorophenoxy)-6-(trifluoromethyl)pyrimidin-2-yl]piperidin-4-ol] | 6.42 | 8.13 | 21.4 µM | 6.0 | – |
| CN(CC1(O)CCN(c2nc(Oc3cccc(F)c3)cc(C(F)(F)F)n2)CC1)C1CC1 [Example 4, 4-{[cyclopropyl(methyl)amino]methyl}-1-[4-(3-fluorophenoxy)-6-(trifluoromethyl)pyrimidin-2-yl]piperidin-4-ol] | 6.19 | 7.38 | > 100 µM | 6.1 | – |
| CNCC1(O)CCN(c2nc(Oc3cccc(F)c3)cc(C(F)(F)F)n2)CC1 [Example 5, 1-[4-(3-fluorophenoxy)-6-(trifluoromethyl)pyrimidin-2-yl]-4-[(methylamino)methyl]piperidin-4-ol] | 6.61 | 8.33 | 23.4 µM | 5.7 | – |
| OC1(CN2CCC(F)(F)C2)CCN(c2nc(Oc3cccc(F)c3)cc(C(F)(F)F)n2)CC1 [Example 6, 4-[(3,3-difluoropyrrolidin-1-yl)methyl]-1-[4-(3-fluorophenoxy)-6-(trifluoromethyl)pyrimidin-2-yl]piperidin-4-ol] | 5.94 | 6.89 | 32.4 µM | – | > 10 µM |
| Cl.OC1(CN2CCCNCC2)CCN(c2nc(Oc3cccc(F)c3)cc(C(F)(F)F)n2)CC1 [Example 7, 4-(1,4-diazepan-1-ylmethyl)-1-[4-(3-fluorophenoxy)-6-(trifluoromethyl)pyrimidin-2-yl]piperidin-4-ol hydrochloride] | 6.53 | 8.06 | 2.95 µM | 5.8 | – |
| CC1CCC(C)N1CC1(O)CCN(c2nc(Oc3cccc(F)c3)cc(C(F)(F)F)n2)CC1 (stereo not drawn) [Example 8, 4-[(2,5-dimethylpyrrolidin-1-yl)methyl]-1-[4-(3-fluorophenoxy)-6-(trifluoromethyl)pyrimidin-2-yl]piperidin-4-ol] | 6.29 | 7.66 | 6.03 µM | 6.8 | – |
| NCC1(O)CCN(c2nc(Oc3cccc(F)c3)cc(C(F)(F)F)n2)CC1 [Example 11, 4-(aminomethyl)-1-[4-(3-fluorophenoxy)-6-(trifluoromethyl)pyrimidin-2-yl]piperidin-4-ol] | 6.46 | 8.72 | 7.59 µM | 5.8 | – |
| NCC1(F)CCN(c2nc(Oc3cccc(F)c3)cc(C(F)(F)F)n2)CC1 [Example 13, {4-fluoro-1-[4-(3-fluorophenoxy)-6-(trifluoromethyl)pyrimidin-2-yl]piperidin-4-yl}methanamine] | 6.40 | 8.31 | 7.24 µM | 5.4 | – |
| NCC1(O)CCN(c2cc(Oc3cccc(F)c3)cc(F)c2F)CC1 [Example 18, 4-(aminomethyl)-1-[2,3-difluoro-5-(3-fluorophenoxy)phenyl]piperidin-4-ol] | 7.51 | 9.05 | 6.17 µM | 6.0 | – |
| NCC1(O)CCN(c2cc(F)c(F)c(Oc3cccc(F)c3)c2)CC1 [Example 19, 4-(aminomethyl)-1-[3,4-difluoro-5-(3-fluorophenoxy)phenyl]piperidin-4-ol] | 6.10 | 8.02 | 0.363 µM | 6.1 | – |

— patent US9920053B2, “N-(hetero)aryl-substituted heteroyclic derivatives useful for the treatment of diseases or conditions related to the central nervous system” (CHRONOS THERAPEUTICS LIMITED, priority 2014, dated 2018)
